The numbers were not newly measured in article PMC5601361, “Targeting the Receptor for Advanced Glycation Endproducts (RAGE): A Medicinal Chemistry Perspective” (Journal of Medicinal Chemistry, 2017), which cites them from elsewhere.

Series [1] deals with sRAGE.
Series [2] has as its system sRAGE. The source holds these as a separate data set.
Series [3] relates to RAGE-transfected CHO cells.
Series [4] deals with Wistar rats treated with AGEs. The arrangement: method as in PMID 26738988. The settings on record: ip 1 mg/kg/day for 4 weeks.
For series [5], the system named is aortas of aged rats. Set-up: method as in PMID 25160740.
In series [6] the test system is APPsw/0 mice.
Series [7] concerns the target rat and mouse sRAGE. The arrangement: method as in PMID 7592757. The settings on record: VC1C2.
Series [8] deals with LLC and B16 melanoma cells. The arrangement: method as in PMID 22493510, PMID 21347371. The settings on record: single preadministration.
Series [9] addresses human RAGE. The arrangement: method as in PMID 22493510, PMID 21347371. The note with it: SPR on human RAGE.
Series [10] concerns Aβ. Set-up: method as in PMID 26899576. The note with it: 50 μM.
Series [11] concerns RAGE-overexpressing SH-SY5Y cells.
The subject of series [12] is APPswe/PS1 mice.
In series [13] the target is human sRAGE. The arrangement: method as in PMID 24824951. The note with it: V domain; read-out: affinity for RAGE (Kd).
On the set-up of series [14]: method as in PMID 26771209.
Series [15] has as its system human brain tissue. Set-up: method as in PMID 26771209.
On the set-up of series [16]: method as in PMID 26771209. The source holds these as a separate data set.
The target in series [17] is human sRAGE. The arrangement: method as in PMID 22406537. The settings on record: V domain, read-out: affinity for RAGE (Kd).
Series [18] has as its system human RAGE-Aβ1–42. The settings on record: ELISA on human RAGE-Aβ1–42; for inhibitory activity compared with another compound: at 20 μM.
Series [19] has as its system rats. The arrangement: method as in PMID 25757085, PMID 20223279.
Series [20] deals with immune-deficient mice implanted with cancer cells. Set-up: method as in PMID 22718861. The settings on record: ip delivery.
The subject of series [21] is pancreatic cancer cell lines. Set-up: method as in PMID 22718861. The settings on record: several cancer cell lines.
For series [22], the system named is tumor cell. The arrangement: method as in PMID 23421467. The note with it: in vitro and in vivo.
In series [23] the test system is diabetic mice. Set-up: method as in PMID 18245563, PMID 26807573, PMID 14568011.
Series [24] has as its system wild-type mice. Set-up: method as in PMID 22742537, PMID 24727489. The settings on record: given prior to human Aβ administration, 3 ip, 7 iv 25 mg/kg.
The target in series [25] is human RAGE. Set-up: method as in PMID 22742537, PMID 24727489. The settings on record: SPR.
The test system of series [26] is C6 glioma cells. The arrangement: method as in PMID 22742537. The settings on record: in vitro; 3 at 10 μM.
On the set-up of series [27]: method as in PMID 25533401.
The mark [28] stands for this setting: read-out: IC50, interaction of sRAGE to CML.
Where [29] appears, read: read-out: IC50, interaction of sRAGE to S110B.
The mark [30] stands for this setting: read-out: IC50, interaction of sRAGE to amyloid β.

“Also recorded” adds a separate entry of the source. Where two headings read alike, the source gives them in different places. A value given as a limit tells only on which side of the number the result lay.

Regarding `CCCCn1c([C@@H](Cc2ccc(OCCc3ccc(Cl)cc3)cc2)NC(=O)OC(C)(C)C)nc2cc(OCCCN(CC)CC)ccc21` [Compound 11], the concentration for half-maximal inhibition (IC50) in [1] (setting [28]), in [1] (setting [29]) and in series [1] (setting [30]) was less than 500 nM each time.

For the compound `O=C(c1ccc(Cl)cc1)N(Cc1ccccc1)C1CCCCC1` [Compound 12, N-Benzyl-N-cyclohexyl-4-chlorobenzamide], the BBB permeability result is on record as “acceptable BBB permeability”. Also, the “binding to immobilized Aβ” value in [2] is “did not bind”. Further, the “Aβ1–40, Aβ1–42, S100B, HMGB1 binding to RAGE” value in series [2] (in vitro) is “• inhibited Aβ1–40, Aβ1–42, S100B, HMGB1 binding to RAGE (in vitro)”. In addition, the “toxicity in RAGE-transfected CHO cells” value in series [3] (10 μM) was “nontoxic”. Also, the “cytotoxicity / toxicology profile in vitro and in vivo” value in series [3] (cell culture and rodents) is “good toxicology profile; also recorded: • low cytotoxicity in vitro and in vivo”. In series [3] (in vitro and in vivo), the “Aβ1–40-induced NF-κB activation, BACE1 expression, cytokines” value was “• reduced Aβ1–40-induced NF-κB activation, BACE1 expression, cytokines (in vitro and in vivo)”. Besides, the “RAGE-mediated cellular oxidative stress, BACE1 mRNA, BACE1 activity, nuclear NF-κB levels” value in [3] (induced by Aβ1–40 and Aβ1–42) is “reduced”. Moreover, in [4], the “Aβ expression and APP production, NF-κB-mediated Aβ production, inflammatory response, ROS and lipid peroxidation” value is listed as “reduction”; the antioxidant enzyme activity result is “increased”. Further, in series [5], the GSH/GSSG ratio entry was “increased”; the “malondialdehyde and ROS production” value is “reduced”. In [6], the “Aβ1–40 and Aβ1–42 levels in brain (cortex, hippocampus)” value is “reducing their levels in the cortex and the hippocampus; also recorded: • reduced Aβ1–40 and Aβ1–42 levels in brain”; the “RAGE actions at the BBB and in the brain” value was “• blocked RAGE actions at the BBB and in the brain”; the “RAGE-mediated influx of circulating Aβ1–40 and Aβ1–42 into the brain” value was “inhibited; also recorded: • inhibition of Aβ influx in the brain (in vivo)”; the “binding specificity in the CNS” value is on record as “bound exclusively to RAGE”. For the same compound, in series [6], the “neuronal oxidative stress, microglia activation, neuroinflammation” value was “reduced Aβ-induced RAGE-dependent oxidative stress in neurons, suppressed microglia activation, and neuroinflammation”. Also, in series [6] (aged APPsw/0 mice), the “cognitive performance and cerebral blood flow” value was “• normalized cognitive performance and cerebral blood flow in aged APPsw/0 mice”. Further, in [6] (ip 1 mg/kg daily for 2 months), the “soluble APP β protein, p65, NF-κB and BACE1 mRNA levels in cortex and hippocampus” value is listed as “reduced”. Besides, the dose not toxic entry in series [6] (ip, 15–17-month-old APPsw/0 mice) is on record as “up to 500 mg/kg”.

As for “HMGB1 (amphoterin): high mobility group box 1, cytokine-type RAGE ligand”, the “affinity for RAGE (Kd)” value in [7] is on record as “low nanomolar range”. For the same compound, the equilibrium dissociation constant (Kd) in [7] (read-out: affinity for RAGE (Kd)) was 6 to 10 nM.

On to `CCCCOc1cc(OCCCN(CC)CC)ccc1NC(=O)C(CC1CCN(Cc2ccccc2)CC1)NC(=O)OCC1c2ccccc2-c2ccccc21` (stereo not drawn) [Compound 10], for which the IC50 in series [1] (setting [28]), in series [1] (setting [29]) and in [1] (setting [30]) was less than 500 nM each time.

heparan sulfate [Compound 16]: the “lung colonization by tumor cells” value in series [8] is listed as “suppressed”. For the same compound, the Kd in [9] is 0.6 nM.

With `O=C1CCC[C@@H]2[C@H]3CCCN4CCC[C@@H](CN12)[C@@H]34` [Compound 14, matrine, reference compound], the “Aβ aggregation or fibrillation” value in series [10] is recorded as “prevents Aβ aggregation or fibrillation”. Also, the Aβ-induced cytotoxicity entry in [11] was “inhibits Aβ-induced cytotoxicity”. Moreover, the “RAGE-Aβ signaling pathway (NF-κB and BACE1 expression levels)” value in series [11] (50 μM) was “decrease of NF-κB and BACE1 expression levels”. The “Aβ1–42, NF-κB, BACE1 and cytokines” value in [11] (in vitro and in vivo) was “• reduced Aβ1–42, NF-κB, BACE1 and cytokines (in vitro and in vivo)”. For the same compound, in [12] (ip 100 mg/kg), the “brain Aβ, NF-κB, BACE1 levels” value is listed as “reduces”; the “proinflammatory cytokines (TNF-α and IL-1β)” value is listed as “downregulates”. The “transport across the BBB” value in series [12] (ip 100 mg/kg, AD transgenic mice) is “is transported across the BBB”.

For the compound “methylglyoxal-derived hydroimidazolones [MG-H]”, in [13], the Kd was 30 to 40 nM.

`O=C(c1ccc([18F])cc1)N(Cc1ccccc1)C1CCCCC1` [[^18F]13]: in series [14], the “time of peak after iv injection” value was no more than 3 min and the “washout over the PET scan” value is given as “virtually complete washout”. The “nonspecific binding in vivo” value in series [14] (iv injection) is “significant nonspecific binding to the white matter”. The “uptake in frontal cortex of AD compared with healthy control tissue” value in series [15] is “higher uptake”. For the same compound, in series [16], the “metabolism in rat liver microsomes” value is recorded as “rapidly metabolized”.

As for “β amyloid: β amyloid peptide, RAGE ligand”, the results for the Kd in series [17] (listed as 125I-labeled Aβ1–40) and in series [17] were 75 nM and 70 to 80 nM, respectively.

For `CCN(CC)CCOc1ccc(OC)cc1NC(=O)c1nc(-c2ccc(F)cc2)cc(-c2ccc(F)cc2)n1` [Compound 6], the “inhibitory activity compared with another compound” value in series [18] was “superior RAGE inhibition than 3”.

Regarding `O=C(O)c1cccnc1C(=O)O` [quinolinic acid], the “neuronal death in the striatum” value in [19] is “dose-dependent neuronal death in the striatum”.

On to “ELKVLMEKEL [Compound 19, RAGE antagonistic peptide developed from the structure of S100P]”, for which the “tumor growth, metastasis and inflammation” value in series [20] was “reduction of tumor growth, metastasis, and inflammation”. Further, the “RAGE activation of NF-κB, inflammation, tumor growth and metastasis” value in series [21] is “reduced; also recorded: inhibition of NF-κB, inflammation, tumor growth and metastasis”.

For the compound heparin [Compound 17], in [22], the “tumor cell growth, migration, invasion and distant metastasis” value is “inhibited tumor cell growth, migration, invasion, and distant metastasis”. In addition, in series [9], the Kd is 3.1 nM.

Turning to `CC1NC(NCCC[C@H](N)C(=O)O)=NC1=O` (stereo partly drawn) [MG-H1, methylglyoxal-derived hydroimidazolone-1], the Kd in series [13] was 40 nM.

As to `C[C@H](CCC(=O)O)[C@H]1CC[C@H]2[C@@H]3[C@@H](O)C[C@@H]4C[C@H](O)CC[C@]4(C)[C@H]3CC[C@]12C` [ursodeoxycholic acid], the antiatherogenic activity result in series [23] was “antiatherogenic activity”.

Turning to chondroitin sulfate E [Compound 15], in series [8], the “lung colonization by tumor cells” value is “suppressed”. In series [9], the Kd was 0.2 nM.

On to `CCN(CC)CCOc1cccc(Nc2nc(-c3ccc(Cl)cc3)cc(-c3ccc(Cl)cc3)n2)c1` [Compound 3], for which, in series [24] (25 mg/kg), the “Aβ brain entry / accumulation in the brain” value (shortened to “Aβ brain entry / accumulation”) was “inhibited Aβ brain entry; also recorded: • inhibition of Aβ accumulation in the brain (in vivo)”. In addition, the Kd in [25] was 102000 nM. For the same compound, in [18], the IC50 was 16500 nM. Further, the “Aβ-induced NF-κB signaling” value in [26] is given as “down-regulation; also recorded: • downregulation of Aβ-induced NF-κB (in vitro)”. In series [12] (oral 50 mg/kg per day for up to three months), the “concentration of toxic soluble Aβ in the brain” value is on record as “significantly lowered”.

For the compound `CN(C)C1CCN(CCOc2cccc(Nc3nc(-c4ccc(Cl)cc4)cc(-c4ccc(Cl)cc4)n3)c2)C1` (stereo not drawn) [Compound 5], the “inhibitory activity compared with another compound” value in [18] is “improved RAGE-Aβ1–42 inhibition”. For the same compound, the “solubility compared to 3” value in series [27] was “improved”.

For the compound `CCN(CC)CCOc1ccccc1Nc1nc(-c2ccc(Cl)cc2)cc(-c2ccc(Cl)cc2)n1` [Compound 4], the “Aβ brain entry / accumulation” value in series [24] is on record as “• inhibition of Aβ accumulation in the brain (in vivo)”. For the same compound, the IC50 in series [18] was 4600 nM. In addition, the “Aβ-induced NF-κB signaling” value in series [26] is given as “• downregulation of Aβ-induced NF-κB (in vitro)”.

As to `CCCCOc1cc(OCCCN(CC)CC)ccc1NC(=O)c1cc(-c2ccc(Oc3ccc(F)cc3)cc2)nn1C` [Compound 7], the “Aβ brain entry / accumulation” value in series [24] was “reduce Aβ entry in the brain”. Also, the Kd in [25] was 43400 nM.
